From the supplement of paper PMC11616607

System: Kuramochi
Test: drug sensitivity score (DSS) from 5-point dose-response viability curve (DSS (area-under-curve based score)); higher = more sensitive (stronger growth inhibition or killing); extreme values may be limits of the assay
Settings: exposure time: 72 h; concentration range: 5 concentrations over 10,000-fold range
How it was run: (§1)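 Ovarian cancer and normal ovarian cell lines were tested in 384-well plates. Drugs were acoustically dispensed (Echo 550) in DMSO or water at five concentrations spanning a 10,000-fold range, then 1,500 cells per well were added and incubated 3 days at 37°C, 5% CO2. Viability was read by CellTiter-Glo luminescence on a PHERAstar FS. Drug sensitivity score was derived per cell line and drug with Breeze software; higher means more sensitive, zero means no response.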

Row | Compound | drug sensitivity score
1 | COc1cc(CCc2cc(NC(=O)c3ccc(N4CC(C)NC(C)C4)cc3)n[nH]2)cc(OC)c1 (centres undefined) [AZD4547] | 0
2 | CN(C)C(=O)c1ccc(S(=O)(=O)c2ccc(NC(=O)[C@@](C)(O)C(F)(F)F)c(Cl)c2)cc1 [AZD7545] | 0
3 | NC(=O)Nc1cc(-c2cccc(F)c2)sc1C(=O)N[C@H]1CCCNC1 [AZD7762] | 4.2
4 | COc1ccc(-c2ccc3c(N4CCOC[C@@H]4C)nc(N4CCOC[C@@H]4C)nc3n2)cc1CO [AZD8055] | 15.6
5 | N#Cc1ccc2[nH]c(O)c(-c3ccc(CN4CCOCC4)cn3)c2c1 [AZD-1080] | 0
6 | Cc1ncc(-c2ccnc(Nc3ccc(S(C)(=O)=O)cc3)n2)n1C(C)C [AZD-5438] | 6.8
7 | Cc1cc([C@@H](C)Nc2ccccc2C(=O)O)c2nc(N3CCOCC3)cc(=O)n2c1 [AZD-6482] | 6
8 | C[C@@H](Nc1cc(F)cc(F)c1)c1cc(C(=O)N(C)C)cc2c(=O)cc(N3CCOCC3)oc12 [AZD-8186] | 7.1
9 | CCN1CCN(Cc2ccc(Nc3ncc(F)c(-c4cc(F)c5nc(C)n(C(C)C)c5c4)n3)nc2)CC1 [Abemaciclib] | 2.5
10 | CN(C)Cc1c(C(=O)NCCOc2ccc(C(=O)NO)cc2)oc2ccccc12 [Abexinostat] | 14.6
11 | C[C@]12CC[C@H](O)CC1=CC[C@@H]1[C@@H]2CC[C@]2(C)C(c3cccnc3)=CC[C@@H]12 [Abiraterone] | 0
12 | CC#CC(=O)N1CCC[C@H]1c1nc(-c2ccc(C(=O)Nc3ccccn3)cc2)c2c(N)nccn12 [Acalabrutinib] | 6.2
13 | COc1cc(C)c(/C=C/C(C)=C/C=C/C(C)=C/C(=O)O)c(C)c1C [Acitretin] | 0
14 | CN(C)C/C=C/C(=O)Nc1cc2c(Nc3ccc(F)c(Cl)c3)ncnc2cc1O[C@H]1CCOC1 [Afatinib] | 2.3
15 | Cn1ncc(Cl)c1-c1cc(C(=O)N[C@H](CN)Cc2cccc(F)c2)sc1Cl [Afuresertib] | 4
16 | COc1cccc2c1C(=O)c1c(O)c3c(c(O)c1C2=O)C[C@@](O)(/C(CO)=N/NC(=O)CCCCCN1C(=O)C=CC1=O)C[C@@H]3O[C@H]1C[C@H](N)[C@H](O)[C@H](C)O1 [Aldoxorubicin] | 5.8
17 | CCc1cc2c(cc1N1CCC(N3CCOCC3)CC1)C(C)(C)c1[nH]c3cc(C#N)ccc3c1C2=O [Alectinib] | 0
18 | COc1cc(Nc2ncc3c(n2)-c2ccc(Cl)cc2C(c2c(F)cccc2OC)=NC3)ccc1C(=O)O [Alisertib] | 3.7
19 | Oc1ncnc2[nH]ncc12 [Allopurinol] | 0
20 | Cc1nc(NC(=O)N2CCC[C@H]2C(N)=O)sc1-c1ccnc(C(C)(C)C(F)(F)F)c1 [Alpelisib] | 2.4
21 | O=C(Nc1cc(Oc2cc(F)c(NC(=O)C3(C(=O)Nc4ccc(F)cc4)CC3)cc2F)ccn1)C1CC1 [Altiratinib] | 4.3
22 | CN1CC[C@H](c2c(O)cc(O)c3c(=O)cc(-c4ccccc4Cl)oc23)[C@H](O)C1 [Alvocidib] | 16
23 | CCN(CC)CCNC(=O)c1c(C)[nH]c(/C=C2\C(=O)Nc3ccc(-c4csc(-c5ccccc5)n4)cc32)c1C [Amcasertib] | 0
24 | CCC1(c2ccc(N)cc2)CCC(=O)NC1=O (centres undefined) [Aminoglutethimide] | 0
25 | COc1cc(NS(C)(=O)=O)ccc1Nc1c2ccccc2nc2ccccc12 [Amsacrine] | 0
26 | S=C(NCc1ccc2c(c1)OCO2)N1CCN(c2ncnc3c2oc2ccccc23)CC1 [Amuvatinib] | 0.2
27 | O=C1CN2Cc3c(ccc(Cl)c3Cl)N=C2N1 [Anagrelide] | 0
28 | CC(C)(C#N)c1cc(Cn2cncn2)cc(C(C)(C)C#N)c1 [Anastrozole] | 0

System: OV90
Test: as above
Settings: exposure time: 72 h; concentration range: 5 concentrations over 10,000-fold range
How it was run: as §1

Row | Compound | drug sensitivity score
29 | COc1cc(CCc2cc(NC(=O)c3ccc(N4CC(C)NC(C)C4)cc3)n[nH]2)cc(OC)c1 (centres undefined) [AZD4547] | 0
30 | CN(C)C(=O)c1ccc(S(=O)(=O)c2ccc(NC(=O)[C@@](C)(O)C(F)(F)F)c(Cl)c2)cc1 [AZD7545] | 0
31 | NC(=O)Nc1cc(-c2cccc(F)c2)sc1C(=O)N[C@H]1CCCNC1 [AZD7762] | 6.4
32 | COc1ccc(-c2ccc3c(N4CCOC[C@@H]4C)nc(N4CCOC[C@@H]4C)nc3n2)cc1CO [AZD8055] | 20.8
33 | N#Cc1ccc2[nH]c(O)c(-c3ccc(CN4CCOCC4)cn3)c2c1 [AZD-1080] | 0
34 | Cc1ncc(-c2ccnc(Nc3ccc(S(C)(=O)=O)cc3)n2)n1C(C)C [AZD-5438] | 4.4
35 | Cc1cc([C@@H](C)Nc2ccccc2C(=O)O)c2nc(N3CCOCC3)cc(=O)n2c1 [AZD-6482] | 0
36 | C[C@@H](Nc1cc(F)cc(F)c1)c1cc(C(=O)N(C)C)cc2c(=O)cc(N3CCOCC3)oc12 [AZD-8186] | 0.1
37 | CCN1CCN(Cc2ccc(Nc3ncc(F)c(-c4cc(F)c5nc(C)n(C(C)C)c5c4)n3)nc2)CC1 [Abemaciclib] | 1.5
38 | CN(C)Cc1c(C(=O)NCCOc2ccc(C(=O)NO)cc2)oc2ccccc12 [Abexinostat] | 16.5
39 | C[C@]12CC[C@H](O)CC1=CC[C@@H]1[C@@H]2CC[C@]2(C)C(c3cccnc3)=CC[C@@H]12 [Abiraterone] | 0.5
40 | CC#CC(=O)N1CCC[C@H]1c1nc(-c2ccc(C(=O)Nc3ccccn3)cc2)c2c(N)nccn12 [Acalabrutinib] | 0
41 | COc1cc(C)c(/C=C/C(C)=C/C=C/C(C)=C/C(=O)O)c(C)c1C [Acitretin] | 0.2
42 | CN(C)C/C=C/C(=O)Nc1cc2c(Nc3ccc(F)c(Cl)c3)ncnc2cc1O[C@H]1CCOC1 [Afatinib] | 0
43 | Cn1ncc(Cl)c1-c1cc(C(=O)N[C@H](CN)Cc2cccc(F)c2)sc1Cl [Afuresertib] | 0.9
44 | COc1cccc2c1C(=O)c1c(O)c3c(c(O)c1C2=O)C[C@@](O)(/C(CO)=N/NC(=O)CCCCCN1C(=O)C=CC1=O)C[C@@H]3O[C@H]1C[C@H](N)[C@H](O)[C@H](C)O1 [Aldoxorubicin] | 8.3
45 | CCc1cc2c(cc1N1CCC(N3CCOCC3)CC1)C(C)(C)c1[nH]c3cc(C#N)ccc3c1C2=O [Alectinib] | 0
46 | COc1cc(Nc2ncc3c(n2)-c2ccc(Cl)cc2C(c2c(F)cccc2OC)=NC3)ccc1C(=O)O [Alisertib] | 5.4
47 | Oc1ncnc2[nH]ncc12 [Allopurinol] | 0.3
48 | Cc1nc(NC(=O)N2CCC[C@H]2C(N)=O)sc1-c1ccnc(C(C)(C)C(F)(F)F)c1 [Alpelisib] | 1
49 | O=C(Nc1cc(Oc2cc(F)c(NC(=O)C3(C(=O)Nc4ccc(F)cc4)CC3)cc2F)ccn1)C1CC1 [Altiratinib] | 0
50 | CN1CC[C@H](c2c(O)cc(O)c3c(=O)cc(-c4ccccc4Cl)oc23)[C@H](O)C1 [Alvocidib] | 14.7
51 | CCN(CC)CCNC(=O)c1c(C)[nH]c(/C=C2\C(=O)Nc3ccc(-c4csc(-c5ccccc5)n4)cc32)c1C [Amcasertib] | 0
52 | CCC1(c2ccc(N)cc2)CCC(=O)NC1=O (centres undefined) [Aminoglutethimide] | 0
53 | COc1cc(NS(C)(=O)=O)ccc1Nc1c2ccccc2nc2ccccc12 [Amsacrine] | 7.3
54 | S=C(NCc1ccc2c(c1)OCO2)N1CCN(c2ncnc3c2oc2ccccc23)CC1 [Amuvatinib] | 3.2
55 | O=C1CN2Cc3c(ccc(Cl)c3Cl)N=C2N1 [Anagrelide] | 0
56 | CC(C)(C#N)c1cc(Cn2cncn2)cc(C(C)(C)C#N)c1 [Anastrozole] | 0

System: OVCAR4
Test: as above
Settings: exposure time: 72 h; concentration range: 5 concentrations over 10,000-fold range
How it was run: as §1

Row | Compound | drug sensitivity score
57 | COc1cc(CCc2cc(NC(=O)c3ccc(N4CC(C)NC(C)C4)cc3)n[nH]2)cc(OC)c1 (centres undefined) [AZD4547] | 0
58 | CN(C)C(=O)c1ccc(S(=O)(=O)c2ccc(NC(=O)[C@@](C)(O)C(F)(F)F)c(Cl)c2)cc1 [AZD7545] | 0
59 | NC(=O)Nc1cc(-c2cccc(F)c2)sc1C(=O)N[C@H]1CCCNC1 [AZD7762] | 7
60 | COc1ccc(-c2ccc3c(N4CCOC[C@@H]4C)nc(N4CCOC[C@@H]4C)nc3n2)cc1CO [AZD8055] | 17.5
61 | N#Cc1ccc2[nH]c(O)c(-c3ccc(CN4CCOCC4)cn3)c2c1 [AZD-1080] | 0
62 | Cc1ncc(-c2ccnc(Nc3ccc(S(C)(=O)=O)cc3)n2)n1C(C)C [AZD-5438] | 2.9
63 | Cc1cc([C@@H](C)Nc2ccccc2C(=O)O)c2nc(N3CCOCC3)cc(=O)n2c1 [AZD-6482] | 1.6
64 | C[C@@H](Nc1cc(F)cc(F)c1)c1cc(C(=O)N(C)C)cc2c(=O)cc(N3CCOCC3)oc12 [AZD-8186] | 3.1
65 | CCN1CCN(Cc2ccc(Nc3ncc(F)c(-c4cc(F)c5nc(C)n(C(C)C)c5c4)n3)nc2)CC1 [Abemaciclib] | 0
66 | CN(C)Cc1c(C(=O)NCCOc2ccc(C(=O)NO)cc2)oc2ccccc12 [Abexinostat] | 10.5
67 | C[C@]12CC[C@H](O)CC1=CC[C@@H]1[C@@H]2CC[C@]2(C)C(c3cccnc3)=CC[C@@H]12 [Abiraterone] | 0.3
68 | CC#CC(=O)N1CCC[C@H]1c1nc(-c2ccc(C(=O)Nc3ccccn3)cc2)c2c(N)nccn12 [Acalabrutinib] | 2.1
69 | COc1cc(C)c(/C=C/C(C)=C/C=C/C(C)=C/C(=O)O)c(C)c1C [Acitretin] | 0
70 | CN(C)C/C=C/C(=O)Nc1cc2c(Nc3ccc(F)c(Cl)c3)ncnc2cc1O[C@H]1CCOC1 [Afatinib] | 1
71 | Cn1ncc(Cl)c1-c1cc(C(=O)N[C@H](CN)Cc2cccc(F)c2)sc1Cl [Afuresertib] | 0.5
72 | COc1cccc2c1C(=O)c1c(O)c3c(c(O)c1C2=O)C[C@@](O)(/C(CO)=N/NC(=O)CCCCCN1C(=O)C=CC1=O)C[C@@H]3O[C@H]1C[C@H](N)[C@H](O)[C@H](C)O1 [Aldoxorubicin] | 3.2
73 | CCc1cc2c(cc1N1CCC(N3CCOCC3)CC1)C(C)(C)c1[nH]c3cc(C#N)ccc3c1C2=O [Alectinib] | 0
74 | COc1cc(Nc2ncc3c(n2)-c2ccc(Cl)cc2C(c2c(F)cccc2OC)=NC3)ccc1C(=O)O [Alisertib] | 4.9
75 | Oc1ncnc2[nH]ncc12 [Allopurinol] | 0.2
76 | Cc1nc(NC(=O)N2CCC[C@H]2C(N)=O)sc1-c1ccnc(C(C)(C)C(F)(F)F)c1 [Alpelisib] | 0.9
77 | O=C(Nc1cc(Oc2cc(F)c(NC(=O)C3(C(=O)Nc4ccc(F)cc4)CC3)cc2F)ccn1)C1CC1 [Altiratinib] | 3.3
78 | CN1CC[C@H](c2c(O)cc(O)c3c(=O)cc(-c4ccccc4Cl)oc23)[C@H](O)C1 [Alvocidib] | 13.3
79 | CCN(CC)CCNC(=O)c1c(C)[nH]c(/C=C2\C(=O)Nc3ccc(-c4csc(-c5ccccc5)n4)cc32)c1C [Amcasertib] | 0.8
80 | CCC1(c2ccc(N)cc2)CCC(=O)NC1=O (centres undefined) [Aminoglutethimide] | 0
81 | COc1cc(NS(C)(=O)=O)ccc1Nc1c2ccccc2nc2ccccc12 [Amsacrine] | 0.2
82 | S=C(NCc1ccc2c(c1)OCO2)N1CCN(c2ncnc3c2oc2ccccc23)CC1 [Amuvatinib] | 0.9
83 | O=C1CN2Cc3c(ccc(Cl)c3Cl)N=C2N1 [Anagrelide] | 0
84 | CC(C)(C#N)c1cc(Cn2cncn2)cc(C(C)(C)C#N)c1 [Anastrozole] | 0
